Experimental data: patent EP4647082A1, “PHARMACEUTICAL COMPOSITION COMPRISING A CGRP RECEPTOR ANTAGONIST FOR THE TREATMENT OF ACUTE MIGRAINE” (NUVIE BIO, Inc., priority 2024, dated 2025)
Like-named read-outs stand apart in the source and are kept apart here. Marks after values point to notes of the source that are not given here. Bridge positions count the residues as written; N and C are the ends. Square brackets hold non-standard residues; d marks the D form. Peptide text beside a SMILES is read from it. * marks the point of attachment. Phe(2-CONH2) = NC(=O)c1ccccc1C[C@H](N)C(=O)O; Orn(iPr) = CC(C)NCCC[C@H](N)C(=O)O; Oxazole2carbonyl = O=C(c1ncco1)*; 3Pal = N[C@@H](Cc1cccnc1)C(=O)O

Assay: Phase I first-in-human study, pharmacokinetics after single ascending subcutaneous doses in healthy volunteers
Format: in vivo
Conditions: for level at 2 h: nominal time 2 h; for level at 3 h: nominal time 3 h; for T10nM: time to 10 nM; for T30nM: time to 30 nM; for T100nM: time to 100 nM
Method: For Phase I clinical studies, the 32 mg/mL pharmaceutical composition was dosed subcutaneously. The Phase I clinical trial was a randomised, double-blind, placebo-controlled, first-in-human study of the safety, tolerability and pharmacokinetics of AXN-001 in healthy volunteers under Protocol No. AXN-001-01 .
The pharmacokinetic objective of the clinical trial was to provide pharmacokinetic analysis of AXN-001 following single ascending subcutaneous doses of AXN-001. The study design included the following Cohorts: • Cohort 1: Dose 1 mg (2 mg/mL formulation); • Cohort 2: Dose 2 mg (4 mg/mL formulation); • Cohort 3: Dose 4 mg (8 mg/mL formulation); • Cohort 4: Dose 8 mg (16 mg/mL formulation); • Cohort 5: Dose 16 mg (32 mg/mL formulation).
Participants were administered a single dose (0.5 mL) of AXN-001 or placebo via subcutaneous (SC) injection into the abdomen. Blood samples were collected at specified time points for pharmacokinetic analysis (5,10,15,20,30,45,60 minutes; 2,3,4,6,8,12,24 hours). Individual plasma concentrations of ANX-001 were determined and used for analyses.
Pharmacokinetic (PK) parameters of AXN-001 were determined using Phoenix WinNonlin version 8.3. All concentrations below the limit of quantification (BLQ) were set to zero for the purpose of the PK analysis. All AUC determinations were made using linear trapezoidal method. The following parameters were determined: Cmax Maximum observed concentration. as read directly from the observed data. Tmax Time to maximum concentration T10nM Time to 10 nM T30nM Time to 30 nM T100nM Time to 100 nM AUC0-t Area under the concentration-time curve from time zero to the time of the last measurable concentration, calculated using linear trapezoidal rule AUC0-inf Area under the concentration-time curve from time zero to infinity, calculated using linear trapezoidal rule %AUCextrap The portion of AUC determined by extrapolation t1/2 Apparent terminal elimination half-life CL/F or CL Total apparent body clearance Vz/F or Vz Apparent volume of distribution λz Terminal elimination rate constant

[1] = human, plasma, single SC dose 8 mg, mean, read-out: Plasma Concentration AXN-001
[2] = human, plasma, single SC dose 16 mg, mean
[3] = human, plasma, single SC dose 16 mg, mean, read-out: Plasma Concentration AXN-001

level at 2 h [1]: 136 ng/mL | level at 3 h [1]: 72 ng/mL | level at 4 h (human, plasma, single SC dose 8 mg, nominal time 4 h, mean, read-out: Plasma Concentration AXN-001): 38.7 ng/mL | level at 6 h (human, plasma, single SC dose 8 mg, nominal time 6 h, mean, read-out: Plasma Concentration AXN-001): 13.9 ng/mL | level at 8 h (human, plasma, single SC dose 8 mg, nominal time 8 h, mean, read-out: Plasma Concentration AXN-001): 5.8 ng/mL | level at 12 h (human, plasma, single SC dose 8 mg, nominal time 12 h, mean, read-out: Plasma Concentration AXN-001): 0.38 ng/mL | AUC(0-inf) [2]: 1250 ng·h/mL | AUC(0-t) [2]: 1230 ng·h/mL | CL/F [2]: 222 mL/min | Cmax [2]: 381 ng/mL | Tmax [2]: 0.958 h | half-life [2]: 2.8 h | level at 0.08 h (human, plasma, single SC dose 16 mg, nominal time 0.08 h, mean, read-out: Plasma Concentration AXN-001): 27.4 ng/mL | level at 0.17 h (human, plasma, single SC dose 16 mg, nominal time 0.17 h, mean, read-out: Plasma Concentration AXN-001): 83.4 ng/mL | level at 0.25 h (human, plasma, single SC dose 16 mg, nominal time 0.25 h, mean, read-out: Plasma Concentration AXN-001): 139 ng/mL | level at 0.33 h (human, plasma, single SC dose 16 mg, nominal time 0.33 h, mean, read-out: Plasma Concentration AXN-001): 183 ng/mL | level at 0.5 h (human, plasma, single SC dose 16 mg, nominal time 0.50 h, mean, read-out: Plasma Concentration AXN-001): 294 ng/mL | level at 0.75 h (human, plasma, single SC dose 16 mg, nominal time 0.75 h, mean, read-out: Plasma Concentration AXN-001): 355 ng/mL | level at 1 h (human, plasma, single SC dose 16 mg, nominal time 1 h, mean, read-out: Plasma Concentration AXN-001): 380 ng/mL | level at 2 h [3]: 277 ng/mL | level at 3 h [3]: 170 ng/mL | level at 4 h (human, plasma, single SC dose 16 mg, nominal time 4 h, mean, read-out: Plasma Concentration AXN-001): 96.8 ng/mL | level at 6 h (human, plasma, single SC dose 16 mg, nominal time 6 h, mean, read-out: Plasma Concentration AXN-001): 44 ng/mL | level at 8 h (human, plasma, single SC dose 16 mg, nominal time 8 h, mean, read-out: Plasma Concentration AXN-001): 23.7 ng/mL | level at 12 h (human, plasma, single SC dose 16 mg, nominal time 12 h, mean, read-out: Plasma Concentration AXN-001): 9.2 ng/mL | %AUCextrap (single SC dose 1 mg, mean): 5.37% | Vz/F (single SC dose 1 mg, mean): 19.1 L | λz (single SC dose 1 mg, mean): 0.535 h⁻¹ | Plasma Concentration AXN-001 (single SC dose 1 mg, nominal time 0.08 h, mean): 4.96 ng/mL | Plasma Concentration AXN-001 (single SC dose 1 mg, nominal time 0.17 h, mean): 12.8 ng/mL | Plasma Concentration AXN-001 (single SC dose 1 mg, nominal time 0.25 h, mean): 17.9 ng/mL | Plasma Concentration AXN-001 (single SC dose 1 mg, nominal time 0.33 h, mean): 28.5 ng/mL | Plasma Concentration AXN-001 (single SC dose 1 mg, nominal time 0.50 h, mean): 34.8 ng/mL | Plasma Concentration AXN-001 (single SC dose 1 mg, nominal time 0.75 h, mean): 39.3 ng/mL | Plasma Concentration AXN-001 (single SC dose 1 mg, nominal time 4 h, mean): 7.47 ng/mL | Plasma Concentration AXN-001 (single SC dose 1 mg, nominal time 6 h, mean): 2.8 ng/mL | Plasma Concentration AXN-001 (single SC dose 1 mg, nominal time 8 h, mean): 0 ng/mL | Plasma Concentration AXN-001 (single SC dose 1 mg, nominal time 12 h, mean): 0 ng/mL | T10nM (single SC dose 1 mg): 12 min | T30nM (single SC dose 1 mg, marked *, 1 of 6 subjects reached 30nM): 19* min | %AUCextrap (single SC dose 2 mg, mean): 4.98% | Vz/F (single SC dose 2 mg, mean): 24.6 L | λz (single SC dose 2 mg, mean): 0.528 h⁻¹ | Plasma Concentration AXN-001 (single SC dose 2 mg, nominal time 12 h, mean): 0 ng/mL | T10nM (single SC dose 2 mg): 9 min | T30nM (single SC dose 2 mg, marked *, 5 of 6 subjects reached 30nM): 21* min | %AUCextrap (single SC dose 4 mg, mean): 1.82% | Vz/F (single SC dose 4 mg, mean): 23.3 L | λz (single SC dose 4 mg, mean): 0.517 h⁻¹ | T10nM (single SC dose 4 mg): 6 min | T30nM (single SC dose 4 mg): 11 min | T100nM (single SC dose 4 mg, marked *, 2/5 of cohort reached 100nM): 25* min | %AUCextrap (single SC dose 8 mg, mean): 1.58% | Vz/F (single SC dose 8 mg, mean): 28.7 L | λz (single SC dose 8 mg, mean): 0.481 h⁻¹ | T10nM (single SC dose 8 mg): 3 min | T30nM (single SC dose 8 mg): 7 min | T100nM (single SC dose 8 mg): 21 min | %AUCextrap (single SC dose 16 mg, mean): 1.51% | Vz/F (single SC dose 16 mg, mean): 55.3 L | λz (single SC dose 16 mg, mean): 0.292 h⁻¹ | T10nM (single SC dose 16 mg): 3 min | T30nM (single SC dose 16 mg): 7 min | T100nM (single SC dose 16 mg): 17 min
SMILES: CC(C)NCCC[C@@H]1NC(=O)[C@@H](NC(=O)[C@H](Cc2ccccc2C(N)=O)NC(=O)[C@H](NC(=O)c2ncco2)C(C)C)CSSC[C@@H](C(=O)N[C@@H](Cc2cccnc2)C(N)=O)NC(=O)[C@H](Cc2ccccc2)NC(=O)[C@@H]2CCCN2C(=O)CNC(=O)[C@H](C(C)C)NC(=O)[C@H](CC(=O)O)NC1=O [AXN-001, Oxazole-2-carbonyl-D-Val-Phe(2-Cbm)-c(Cys-Orn (iPr)-Asp-Val-Gly-Pro-Phe-Cys)-3Pal-NH2] (Oxazole2carbonyl-[dV][Phe(2-CONH2)]C[Orn(iPr)]DVGPFC[3Pal]-NH2; disulfide 3-10)
free plasma concentration (Figure 5) (within 30 minutes, compared with olcegepant, zavegepant, rimegepant and ubrogepant, consistent up to 120 minutes): much higher increase in free plasma concentration
